Experimental data: patent publication US9956232B2, “Dialkyl-phosphinoyl-alkane (Dapa) compounds and compositions for treatment of lower gastrointestinal tract disorders” (priority 2016, dated 2018)

How the values were obtained:
[1] = biological target: TRPM8 (Homo sapiens, UniProt Q7Z2W7); assay: TRPM8 receptor agonist assay (Fluo-8 calcium, FLIPR); type: cell-based; design: host or cells: CHO cells, stably transfected
Description: Compounds were tested on (CHO) cells stably transfected with human TRPM8 cDNAs using a Fluo-8 calcium kit and a Fluorescence Imaging Plate Reader ([…]™) instrument. […] Solutions were prepared by diluting stock solutions in a HEPES-buffered physiological saline (HBPS) solution. Test compound and control formulations were loaded in polypropylene or glass-lined 384-well plates, and placed into the FLIPR instrument (Molecular Devices Corporation, Union City, Calif., USA). Each was tested at 8 concentrations with n=4 replicates per determination. […] For […]™ assay, cells were plated in 384-well black wall, flat clear-bottom microtiter plates (Type: BD Biocoat Poly-D-Lysine Multiwell Cell Culture Plate) at approximately 30,000 cells per well. Cells were incubated at 37° C. overnight to reach a near confluent monolayer appropriate for use in a fluorescence assay. The test procedure was to remove the growth media and to add 40 μL of HBPS containing Fluo-8 for 30 minutes at 37° C. 10 μL of test compound, vehicle, or control solutions in HBPS were added to each well and read for 4 minutes. Concentration-response data were analysed via the FLIPR Control software that is supplied with the FLIPR System (MDS-AT) and fitted to a Hill equation.

[2] = biological target: TRPV1 (Homo sapiens, UniProt Q8NER1); assay: TRPV1 calcium imaging (Fura-2AM) in transfected KNRK cells; type: cell-based; design: expressed in transfected cells; host or cells: KNRK cells, transient transfection with Lipofectamine 2000; conditions: KNRK cells transiently transfected with TRPV1
Description: (§1) DAPA-1-9 was tested on TRPV1 channels and TRPA1 channels expressed in KNRK cells (Kirsten murine sarcoma virus transformed kidney epithelial cells). KNRK cells were cultured as a monolayer and maintained in DMEM (Life Technologies), supplemented with 10% FBS (Life Technologies), 100 units/ml penicillin and 100 μg/ml streptomycin, in an incubator of 5% CO2 at 37° C. After suspension, the cells were coated on cover slips for 12 hours, then transiently transfected with cDNA (pc3.1 DNA) for TRPV1 or TRPA1 with Lipofectamine 2000 (Invitrogen) for 24 hr, and loaded with Fura-2AM™ (Molecular Probes) for 40 min at 37° C. After washing and recovery, KNRK cells were imaged at 340 and 380 nm excitation to detect free calcium influx. An increase of 50% of the 340/380 ratio was considered as the response threshold which were measured under blinded conditions for plasmids. Compounds were applied to the bath and calcium response was acquired by an inverted Nikon fluorescence microscope with a CoolSnap HQ2 CCD camera (Photometrics, Tucson, Ariz.). Data were quantified offline with the Nikon-NIS program.

[3] = biological target: TRPA1 (Homo sapiens, UniProt O75762); assay: TRPA1 calcium imaging (Fura-2AM) in transfected KNRK cells; type: cell-based; design: expressed in transfected cells; host or cells: KNRK cells, transient transfection with Lipofectamine 2000; conditions: KNRK cells transiently transfected with TRPA1
Description: as §1

[4] = system: pentobarbital-anesthetized male rats; assay: Shaking frequency (wet-dog shaking) of anesthetized rats after intravenous, perioral or topical delivery; type: in vivo; conditions: anesthetized rat
Description: In experiments conducted here, test compounds were evaluated for “wet-dog shaking” as a model of cooling sensation. Using a standardized procedure, test compounds were compared in their ability to stimulate the shaking response by intravenous injection into a cannulated femoral vein, by perioral administration, and by topical delivery to the abdominal skin.
Each rat was given two injections with a 30 min interval. […] Shaking frequency was counted for 15 min after injection. Shaking was observed immediately after i.v. injection and at least 78% of the total shakes occurred in the first 5 min after injection. The response in the second trial was at least as robust in the first trial, showing the lack of desensitization.
Test compounds were dissolved in saline and administered by oral gavage to pentobarbital-anesthetized male albino rats at 20 mg/kg at a volume of 0.1 mL/100 g body weight [N=3 to 4 rats per compound]. Shaking was counted over a 40 min period and recorded at 10-min intervals.
For topical application of DAPA, the abdominal skin of the anesthetized rat was shaved and 20 μL of the pure DAPA was applied with a micropipette onto a ˜1 cm diameter circle of skin, enclosed with a ring of cream [Baby cream “Nevskaya kosmetika Detskyi” Nevskaya Kosmetika Inc., Saint-Petersburg 192029], as shown in FIG. 5D. The number of shakes was counted for 1 hr after application.

Sequence of TRPM8 (Q7Z2W7 whole entry): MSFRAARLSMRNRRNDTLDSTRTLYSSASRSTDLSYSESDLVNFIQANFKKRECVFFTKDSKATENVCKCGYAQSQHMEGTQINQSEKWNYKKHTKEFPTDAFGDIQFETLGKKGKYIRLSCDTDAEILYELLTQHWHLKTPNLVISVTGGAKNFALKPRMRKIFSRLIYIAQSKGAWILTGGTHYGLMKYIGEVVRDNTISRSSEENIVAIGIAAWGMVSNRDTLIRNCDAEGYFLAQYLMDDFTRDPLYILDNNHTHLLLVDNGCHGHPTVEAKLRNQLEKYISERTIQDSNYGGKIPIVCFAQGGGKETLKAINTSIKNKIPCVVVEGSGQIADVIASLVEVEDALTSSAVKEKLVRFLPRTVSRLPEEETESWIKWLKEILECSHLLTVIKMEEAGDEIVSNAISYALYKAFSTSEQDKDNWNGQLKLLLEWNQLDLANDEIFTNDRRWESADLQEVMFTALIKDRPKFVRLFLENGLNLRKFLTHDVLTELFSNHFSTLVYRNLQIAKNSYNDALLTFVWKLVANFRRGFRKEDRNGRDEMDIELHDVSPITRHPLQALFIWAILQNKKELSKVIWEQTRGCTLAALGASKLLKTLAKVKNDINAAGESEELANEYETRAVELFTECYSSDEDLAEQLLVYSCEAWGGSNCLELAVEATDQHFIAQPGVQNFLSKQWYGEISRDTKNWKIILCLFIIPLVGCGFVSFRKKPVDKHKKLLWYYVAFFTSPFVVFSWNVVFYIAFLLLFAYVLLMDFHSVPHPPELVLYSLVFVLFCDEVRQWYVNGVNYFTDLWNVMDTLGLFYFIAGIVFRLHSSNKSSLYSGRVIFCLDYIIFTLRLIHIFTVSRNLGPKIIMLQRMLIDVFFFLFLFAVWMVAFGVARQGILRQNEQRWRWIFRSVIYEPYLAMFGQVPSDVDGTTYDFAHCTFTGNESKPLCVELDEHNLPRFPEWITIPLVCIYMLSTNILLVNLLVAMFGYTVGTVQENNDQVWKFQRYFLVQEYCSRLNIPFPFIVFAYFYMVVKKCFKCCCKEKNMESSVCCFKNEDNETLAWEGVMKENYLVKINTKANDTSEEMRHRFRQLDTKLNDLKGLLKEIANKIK
Sequence of TRPA1 (O75762 whole entry, species assumed): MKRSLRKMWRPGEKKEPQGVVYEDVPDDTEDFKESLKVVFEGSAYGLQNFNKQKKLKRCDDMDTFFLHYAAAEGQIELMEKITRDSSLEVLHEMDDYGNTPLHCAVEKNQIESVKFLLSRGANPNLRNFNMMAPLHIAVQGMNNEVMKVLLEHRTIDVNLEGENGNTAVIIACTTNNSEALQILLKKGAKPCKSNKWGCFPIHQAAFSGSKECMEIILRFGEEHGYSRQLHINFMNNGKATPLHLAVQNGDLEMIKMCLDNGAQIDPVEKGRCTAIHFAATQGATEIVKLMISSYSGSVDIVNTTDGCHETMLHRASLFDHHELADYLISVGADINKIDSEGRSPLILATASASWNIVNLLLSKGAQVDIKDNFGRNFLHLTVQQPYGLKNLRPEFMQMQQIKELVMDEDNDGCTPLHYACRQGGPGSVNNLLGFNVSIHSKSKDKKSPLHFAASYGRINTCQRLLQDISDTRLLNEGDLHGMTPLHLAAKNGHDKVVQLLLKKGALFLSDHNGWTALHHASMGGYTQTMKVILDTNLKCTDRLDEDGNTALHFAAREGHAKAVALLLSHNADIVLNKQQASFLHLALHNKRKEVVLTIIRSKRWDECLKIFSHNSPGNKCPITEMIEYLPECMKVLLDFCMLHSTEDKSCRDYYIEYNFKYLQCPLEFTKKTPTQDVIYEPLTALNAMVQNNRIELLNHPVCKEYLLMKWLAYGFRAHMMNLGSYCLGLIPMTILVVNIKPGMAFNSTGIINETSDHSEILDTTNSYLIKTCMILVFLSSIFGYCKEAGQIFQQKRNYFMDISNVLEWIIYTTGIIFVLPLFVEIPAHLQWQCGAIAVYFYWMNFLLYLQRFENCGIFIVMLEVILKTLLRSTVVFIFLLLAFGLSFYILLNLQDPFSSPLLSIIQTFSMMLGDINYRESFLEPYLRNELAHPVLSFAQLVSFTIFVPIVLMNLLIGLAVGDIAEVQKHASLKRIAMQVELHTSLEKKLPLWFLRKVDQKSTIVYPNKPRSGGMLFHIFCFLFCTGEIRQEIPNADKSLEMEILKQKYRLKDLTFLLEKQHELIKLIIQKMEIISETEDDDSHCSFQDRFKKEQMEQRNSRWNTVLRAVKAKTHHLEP
Sequence of TRPV1 (Q8NER1 whole entry, species assumed): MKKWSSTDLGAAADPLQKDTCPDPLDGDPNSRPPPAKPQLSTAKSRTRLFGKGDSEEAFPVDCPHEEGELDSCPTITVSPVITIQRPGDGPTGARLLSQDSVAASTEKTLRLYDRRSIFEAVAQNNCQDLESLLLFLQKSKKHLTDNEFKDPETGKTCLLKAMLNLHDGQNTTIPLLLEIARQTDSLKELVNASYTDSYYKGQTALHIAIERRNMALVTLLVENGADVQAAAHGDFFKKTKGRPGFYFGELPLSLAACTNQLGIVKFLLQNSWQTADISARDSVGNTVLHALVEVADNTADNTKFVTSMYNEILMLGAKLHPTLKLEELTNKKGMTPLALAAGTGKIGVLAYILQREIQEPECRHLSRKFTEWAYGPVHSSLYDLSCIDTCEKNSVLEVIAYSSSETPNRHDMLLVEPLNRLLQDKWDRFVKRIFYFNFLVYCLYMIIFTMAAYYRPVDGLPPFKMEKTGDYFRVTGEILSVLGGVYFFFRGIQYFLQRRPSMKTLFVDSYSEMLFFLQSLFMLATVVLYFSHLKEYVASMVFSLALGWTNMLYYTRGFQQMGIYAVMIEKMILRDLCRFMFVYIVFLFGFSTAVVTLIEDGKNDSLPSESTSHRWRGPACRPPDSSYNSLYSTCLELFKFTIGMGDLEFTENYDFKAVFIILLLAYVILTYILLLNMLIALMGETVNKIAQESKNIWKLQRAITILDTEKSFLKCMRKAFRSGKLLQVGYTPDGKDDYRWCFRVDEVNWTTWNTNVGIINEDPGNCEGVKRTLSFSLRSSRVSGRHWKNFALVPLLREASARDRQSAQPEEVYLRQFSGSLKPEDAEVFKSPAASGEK

×Menthol ([1]; TRPM8 relative potency as repeated in Table 4): 4.0
Relative Potency ([1]; relative to menthol = 1.0 (Table 2)): 4.0
Compound: CCCCCCCCCP(=O)(C(C)C)C(C)C [DIPA-1-9, 1-[Diisopropyl-phosphinoyl]-nonane]
agonist or antagonist activities against TRPV1 [2]: devoid of agonist or antagonist activities
agonist or antagonist activities against TRPA1 [3]: devoid of agonist or antagonist activities
Shaking frequency, Intravenous ([4]; 2 mg/kg i.v., 2nd trial, counted for 15 min): 3 ± 1 shakes
Shaking frequency, Perioral ([4]; 20 mg/kg by oral gavage, counted for 40 min): 0 shakes
Shaking frequency, Topical ([4]; 20 μL pure compound on shaved abdominal skin, counted for 1 hr): 0 shakes
